The test system of one assay is A-431. Description: Cytotoxicity expressed as inhibitory concentration required to reduce the cell growth of A431 human epidermal carcinoma cell line. Format: functional, cell-based.
In the next assay the test system is B16. Put plainly: Cytotoxicity expressed as inhibitory concentration required to reduce the cell growth of B16 murine melanoma cell line. Particulars: Mus musculus. Format: functional, cell-based.
A further assay concerns HCT-116. Description: Cytotoxicity expressed as inhibitory concentration required to reduce the cell growth of HCT116 human colon carcinoma cell line. Format: functional, cell-based.
Assay [1] is described as follows: Inhibition ratio expressed as percentage showing significant anti-tumor activity in BDF1 mice bearing Lewis lung carcinoma cells was determined. Format: functional.

Converted amounts (≈) assume the structure as drawn.

As usually defined, the IC50 is the concentration that gives 50% inhibition.

Regarding `COc1ccc(C2=C(c3cc(OC)c(OC)c(OC)c3)C(=O)CC2)cc1O`, the half-inhibitory concentration (IC50) in the assay with A-431 came out at 0.009 µg/mL (≈ 0.0243 µM); in the assay with B16 it was 0.013 µg/mL (≈ 0.0351 µM); in the assay with HCT-116 it was 0.012 µg/mL (≈ 0.0324 µM).

Turning to `COc1ccc(C2=C(c3cc(OC)c(OC)c(OC)c3)C(=O)CC2)cc1N`, the figures for the IC50 in the assay on A-431, in the assay with B16 and in the assay with HCT-116 were 0.009 µg/mL (≈ 0.0244 µM), 0.008 µg/mL (≈ 0.0217 µM) and 0.008 µg/mL (≈ 0.0217 µM), respectively. The Ratio in assay [1] is 59.

Turning to `COc1ccc(C2=C(c3cc(OC)c(OC)c(OC)c3)C(=O)CC2)cc1`, the 50% inhibitory concentration (IC50) with A-431 is 0.021 µg/mL (≈ 0.0593 µM); with B16, 0.015 µg/mL (≈ 0.0423 µM); with HCT-116 it was 0.021 µg/mL (≈ 0.0593 µM).

As to `COc1ccc(C2=C(c3cc(OC)c(OC)c(OC)c3)C(O)CC2)cc1` (configuration not stated), the concentration for half-maximal inhibition (IC50) stood at 0.039 µg/mL (≈ 0.109 µM) in the assay with B16 and 0.045 µg/mL (≈ 0.126 µM) in the assay on HCT-116.

For `COc1ccc(C2=C(c3cc(OC)c(OC)c(OC)c3)C(=O)C=C2)cc1`, the half-inhibitory concentration (IC50) came out at 0.011 µg/mL (≈ 0.0312 µM) with B16 and 0.013 µg/mL (≈ 0.0369 µM) with HCT-116.

With `COc1ccc(C2=C(c3cc(OC)c(OC)c(OC)c3)CCC2)cc1`, the concentration for half-maximal inhibition (IC50) with B16 and in the assay with HCT-116 was greater than 1 µg/mL in each case.

On to `COc1cccc2c1C(=O)c1c(O)c3c(c(O)c1C2=O)C[C@@](O)(C(=O)CO)C[C@@H]3O[C@H]1C[C@H](N)[C@H](O)[C@H](C)O1` [DOXORUBICIN], for which the IC50 in the assay with A-431 came to 0.117 µg/mL (≈ 0.215 µM).

On to `COc1cc(C2=C(c3ccc4ccccc4c3)CCC2=O)cc(OC)c1OC`, for which the IC50 in the assay with A-431 amounted to 0.034 µg/mL (≈ 0.0908 µM); with B16, 0.029 µg/mL (≈ 0.0774 µM); with HCT-116, 0.031 µg/mL (≈ 0.0828 µM).

For `COc1ccc(C2=C(c3cc(OC)c(OC)c(OC)c3)COC2)cc1`, the IC50 in the assay with B16 and in the assay with HCT-116 was greater than 1 µg/mL in each case.

The record behind these values is ChEMBL document CHEMBL1135188, “Synthesis and anti-tumor activity of novel combretastatins: combretocyclopentenones and related analogues” (Bioorg Med Chem Lett, 2002).
